Source: patent US9096607B2, “Tumor necrosis factor inhibitors” (THE TRUSTEES OF THE UNIVERSITY OF PENNSYLVANIA, priority 2005, dated 2015)

Assays:
[1] = test system: collagen induced arthritis; experiment: Collagen induced arthritis in mice; format: in vivo, mouse; settings: DBA/1 mice
Method: Activity of compound I-9 was studied in a mouse collagen induced arthritis system, which is a model for human rheumatoid arthritis. Six to eight weeks old male DBA/1 mice were immunized by multiple intradermal injections of 100 μg chicken type II collagen (Sigma Chemical Co., St. Louis, Mo.) in 100 μl of 0.1 M acetic acid emulsified in an equal volume of complete Freund's adjuvant and were then challenged with the same antigen preparation i.p. on the 21st day. Animals were injected daily with the compound I-9 at different dosages (2-4 mg/kg/day) beginning on day 21 and animals were examined physically every other day in a blinded manner. In this model, disease typically develops 7-10 days after the second immunization, and the severity of disease can be determined by physical examination, joint histochemistry, or both techniques. […] Male DBA/1 mice (6-8-wk-old) were purchased from Jackson Laboratory (Bar Harbor, Me.) and housed in University of Pennsylvania Animal Care Facilities. Animals were maintained in accordance with guidelines of Institutional Animal Care and Use Committee (IACUC) of the University of Pennsylvania. For CIA induction, mice were immunized by multiple intradermal injections of 100 μg chicken type II collagen (Sigma Chemical Co., St. Louis, Mo.) in 100 μL of 0.1M acetic acid emulsified in an equal volume of complete Freund's adjuvant. Mice were challenged with the same antigen preparation i.p. at the 21st day. Mice were injected daily with the test compound at different dosage (2 and 4 mg/kg of body weight) from day 21. Disease develops 7-10 day after the second immunization. Mice were examined physically every other day in a blind manner. Their paws were scored individually as follows: 0=normal; 1=Erythema and mild swelling confined to the ankle joint or toes; 2=Erythema and mild swelling extending from the ankle to the midfoot or ankle joint; 3=Erythema and moderate swelling extending from the ankle to the metatarsal joints; and 4=Erythema and severe swelling encompass the ankle, foot, and digits. The maximum disease score per foot is 4, and the maximum disease score per mouse is 16. For histological examination of the joint, mice were killed at different time points, and their paws were collected and fixed in 10% formalin. The paws were then decalcified in hydrochloric acid, embedded in paraffin, sectioned, and stained with hematoxylin and eosin (H&E).

[2] = target: T1, TNF-R1 (Homo sapiens, UniProt P19438); experiment: Acrylamide quenching of intrinsic tryptophan fluorescence of TNF-R1 (Stern-Volmer); format: binding; settings: test compound 20 μM, 5 μM TNF-R1; TNF-R1 alone 14.4±0.2 M^−1
T1 construct: The ectodomain of wild type TNF receptor 1 was obtained by PCR from pKP13; made in house
T1 sequence (P19438 30-211 limits assumed): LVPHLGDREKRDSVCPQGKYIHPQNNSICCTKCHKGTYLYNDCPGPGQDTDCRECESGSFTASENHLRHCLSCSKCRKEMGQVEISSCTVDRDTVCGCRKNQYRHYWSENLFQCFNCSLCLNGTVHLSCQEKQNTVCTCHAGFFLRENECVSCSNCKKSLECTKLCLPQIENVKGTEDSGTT
Method: The residue W107 in the WP9 loop fluoresces around 340 nm. In this set of experiments, the resultant concentration of quencher ranged up to 0.25 M, quenching 77.4% of the total intrinsic fluorescence of TNF-R1. […] Thus binding of 1-9 to the receptor changed the disposition of tryptophan-107.
Quenching experiments with acrylamide were performed in stirred cells, at 25° C., titrating from a stock of 1 M acrylamide by adding 2.5 μl of acrylamide each time. Recombinant TNF-R1 were at the concentration of 5 μM in 1% DMSO. Tryptophan emission, monitored at 340 nm, was observed using 295 nm excitation. Intensity data following quencher additions were averaged over a 10-sec collection and were corrected for background emission (paired control lacking of protein). Intensities, F, at given quencher concentration, [Q], were analyzed using the Stern-Volmer equation, F0/F=1+KS.V·[Q] • Where F0 is the emission intensity of the protein in the absence of quencher, and KS.V is the Stern-Volmer constant for quenching, given by the slope when data are plotted as Fo/F versus [Q].
For synthesized small molecules, a test compound at 20 μM was pre-incubated with 5 μM TNF-R1 in 1% DMSO for 30 min, and titrated with 1 M acrylamide the same way as TNF-R1 alone. The F0/F was analyzed using the Stern-Volmer equation, and two slopes from TNF receptor and from TNF receptor with the test compound were compared.

[3] = test system: EGF-signaling in NE91 cells; experiment: Effect on EGF-signaling in NE91 cells (western blot); format: cell-based; settings: 2 hr treatment, EGF 100 ng/mL
Method: To verify the effects of I-9 were specific to TNF-α signaling, the effect of I-9 on EGF-signaling was tested in NE91 cells (American Type Culture Collection, Manassas, Va.). NE91 cells were cultured in RPMI medium containing 10% FBS in 6-well plate at the density of 1×10^6/well for 12 hr, followed by 2 hr treatment with or without I-9. Cells were then stimulated with EGF at 100 ng/mL for the indicated time. Cells were then lysed and analyzed by western blotting in the same manner as described above for analysis of TNF-α signaling in L929 cells.

[4] = test system: TNF-α signaling in THP1 cells; experiment: Inhibition of TNF-α signaling in THP1 cells (western blot); format: cell-based, Human; settings: 2 hr pretreatment
Method: THP1 cells (Human acute monocytic leukemia cell line, American Type Culture Collection, Manassas, Va.) were cultured in RPMI with the supplement of 50 mM HEPES, 1 mM Na Pyruvate, 50 μM of 2-ME, 2.5 mg/mL of glucose, […] of gentamicin and 10% of FBS. Cells were cultured in 12-well plate at a density of 6×10^5/well with supplement of 100 ng/mL PMA. Cells were plated 72 hrs to differentiate. Cells were then pretreated with or without small molecule for 2 hr, followed by treatment with TNF-α at 20 ng/mL at the indicated periods. Cells were then lysed and analyzed by western blotting in the same manner as described above for L929 cells.

## CC(=O)Oc1ccc(C(C)(c2ccc(OC(C)=O)cc2)c2ccc(OC(C)=O)cc2)cc1 [Compound I-9, 1,1,1-Tris-(4-acetoxyphenyl)ethane]
[1]; 2-4 mg/kg/day daily from day 21, vs untreated or control groups
  clinical symptoms of arthritis: dose dependent decrease
[1]; treated
  cartilage destruction: prevented
  infiltration, histological analysis of ankle joints: markedly reduced
  synovial tissue, histological analysis of ankle joints: less synovial tissue
[2]
  Stern-Volmer constant for TNF-R1 quenching by acrylamide in the presence of the test compound: 11.6 ± 0.2 M⁻¹
[3]
  changes in EGF-induced signaling: failed to induce changes
[4]
  TNF-α mediated I-kBα phosphorylation: inhibited
  TNF-α mediated p38 phosphorylation: inhibited
